In one assay the test system is MCF7 (breast carcinoma). Also on record: method as in Trieu et al., 2014. The note with it: ref Trieu et al., 2014; cited from earlier work.
Assay [1] deals with KB (oral epidermoid carcinoma cell line). Also on record: method as in Trieu et al., 2014. The settings on record: ref Trieu et al., 2014; cited from earlier work.
The subject of a further assay is HepG2 (liver cancer). Also on record: method as in Trieu et al., 2014. The note with it: ref Trieu et al., 2014; cited from earlier work.
Assay [2] has as its system human colon cancer SW1116 cell line. Kind of assay: MTT antiproliferative assay, SW1116. The format is cell-based. The note with it: for IC50: Homo sapiens, SW 1116, means ± SEM (n=3); for cell viability of SW1116 cells compared with normal group (0 μM): 30 μM, p < 0.01. The method, then:
(§1) The human colon cancer SW1116 cell line, the human hepatocellular carcinoma SMMC-7721 cell line, the human gastric cancer SGC-7901 cell line, and the human hepatocellular carcinoma HepG2 cell line were kindly provided by Xiao-li Xu from the Cancer Center, Fudan University. The human embryonic kidney 293T (HEK293T) cell line was kindly donated by Professor You-hua Xie from Fudan University. These human cancer cell lines were cultured in DMEM medium or RPMI-1640 medium, whereas the HEK293T cell line was cultured in MEM medium. All of the cell lines were supplemented with 10% FBS, penicillin (100 U/ml), and streptomycin ([…]) under a humidified atmosphere of 5% CO2 at 37°C using a CO2 incubator (SANYO, Osaka, Japan). Cell count was assessed using the trypan blue dye exclusion method.
(§2) The antiproliferative effects of the treatments were evaluated using the MTT assay. Cells were seeded at a density of 5×10^3 cells/well in 96-well plates (Corning, NY, USA). After attachment, the culture media were replaced with various concentrations of chemicals for 24 h. Then, the media in 96-well plates were incubated with MTT reagent (5 mg/ml) for 4 h at 37°C. Subsequently, the culture medium was discarded and 100 μl of DMSO was added to each well, to solubilize the formazan crystal formed. The absorbance of formazan crystal solution was determined at 570 nm on a Multiskan FC from Thermo Fisher Scientific Inc. (Waltham, MA, USA).

In assay [3] the test system is human hepatocellular carcinoma SMMC-7721 cell line. The assay can be described thus: MTT antiproliferative assay, SMMC-7721. The note with it: for IC50: Homo sapiens, SMMC-7721, means ± SEM (n=3). The format is cell-based. The method, then: as §1, §2
For assay [4], the system named is human embryonic kidney 293T (HEK293T) cell line. The assay can be described thus: MTT cytotoxicity against normal cell line HEK293T. The format is cell-based. The settings on record: 24 h; for IC50: Homo sapiens, HEK-293T, means ± SEM (n=3). Here is the method: as §1, §2
In assay [5] the test system is human hepatocellular carcinoma HepG2 cell line. Kind of assay: MTT antiproliferative assay, HepG2. The format is cell-based. The settings on record: 24 h, 1.0-100.0 μM, means ± SEM (n=3). The method, then: as §1, §2
Assay [6] deals with human gastric cancer SGC-7901 cell line. The assay can be described thus: MTT antiproliferative assay, SGC-7901. The format is cell-based. The settings on record: 24 h, 1.0-100.0 μM, means ± SEM (n=3). Here is the method: as §1, §2
In the next assay the test system is SW1116 cells. Kind of assay: Annexin V-FITC/PI double staining by flow cytometry. The settings on record: 36 h. The format is cell-based, human. The method, then: The growing cells were incubated in 24-well microplates (Corning, NY, USA) for 24 h. The cells were then treated with various concentrations of leiocarpin E-7′-monoacetate or taxol in humidified air with 5% CO2 at 37°C. After 36 h of incubation, the culture medium was discarded, and the cells were collected. For the apoptosis analysis, cells were suspended with 1×binding buffer (1×10^6 cells/ml) and then labeled with annexin V-FITC/PI, as per the manufacturer's instructions (Keygentec, Nanjing, Jiangsu, China). The analysis of the samples was performed by flow cytometry (Becton-Dickinson Bioscience, San Jose, CA, USA), and the acquired data was analyzed by the CellQuest software (Becton-Dickinson Bioscience, San Jose, CA, USA).

In assay [7] the test system is caspase-3, -8 and -9 in SW1116 cells. The assay can be described thus: Caspase activity assay in cell lysates. The format is cell-based, human. The settings on record: 8 h. The method, then:
To evaluate the activity of caspases, cell lysates were prepared after their respective designated treatments. The incubation of the growing cells was carried out in 24-well microplates (Corning, NY, USA) for 24 h. The cells were then treated with different concentrations of leiocarpin E-7′-monoacetate under humidified air with 5% CO2 at 37°C. After 8 h of incubation, the culture medium was discarded, the cells collected and washed twice with PBS. The mixture was then centrifuged at 2,000 rpm for 5 min. The PBS supernatant was discarded and the cells (concentration, 5×10^6 cells) were collected. To these cells, ice-cold lysis buffer (150~200 μl) was added. The mixture was placed on ice for 30 min, and then centrifuged (10,000 rpm, 1 min) at 4°C. The supernatant, containing lysed protein, was carefully aspirated and transferred to a new tube. The protein concentration was then measured in 2 μl of the supernatant using the Bradford method. The caspase assays were then performed in 96-well microtiter plates (Keygentec, Nanjing, Jiangsu, China) by incubating 10 μl of protein cell lysate per sample in 80 μl of reaction buffer (1% NP-40, 20 mM Tris-HCl (pH 7.5), 137 mM NaCl, and 10% glycerol) containing 10 μl of caspase substrate (2 mM). Lysates were incubated at 37°C for 4 h. Measuremet was done at 405 nm on a Multiskan FC from Thermo Fisher Scientific Inc. (Waltham, MA, USA). The detailed analysis procedure is described in the manufacturer's protocol (Keygentec, Nanjing, Jiangsu, China).

Setting [8] is: MTT, 24 h, 1.0-100.0 μM, read-out: IC50 SW1116.
[9] abbreviates: MTT, 24 h, 1.0-100.0 μM, read-out: IC50 SMMC-7721.
The mark [10] stands for this setting: 1.0-100.0 μM, read-out: IC50 HEK293T.

“Also recorded” adds a separate entry of the source. Where two headings read alike, the source gives them in different places.

As to `CC(=O)OC1C(c2ccccc2)OC2C=CC(=O)OC21` (centres unmarked) [7-acetylaltholactone], the figures for the IC50 (in the assay with MCF7 (breast carcinoma); in assay [1]; in the assay on HepG2 (liver cancer)) were 60.2 µM, 13.1 µM and 23.7 µM, respectively.

In the case of `CC(=O)O[C@H]1C=CC(=O)O[C@H]1[C@H]1O[C@@H]1c1ccccc1` [Cheliensisin A, (2R,3S)-6-oxo-2-((2S,3R)-3-phenyloxiran-2-yl)-3,6-dihydro-2H-pyran-3-yl acetate], the concentration for half-maximal inhibition (IC50) in [2] (setting [8]) is 93.18 ± 0.78 µM; in [2] (pristine compound, MTT, 24 h, 25.0-200.0 μM, read-out: IC50 SW1116 Compound), 93.18 ± 0.78 µM; in [3] (setting [9]), over 100 µM; in assay [3] (pristine compound, MTT, 24 h, 25.0-200.0 μM, read-out: IC50 SMMC-7721 Compound), 111 ± 2.41 µM; in [4] (setting [10]) it was over 100 µM; in assay [4] (pristine compound, 25.0-200.0 μM, read-out: IC50 HEK293T Compound), over 200 µM. Besides, the concentration for half-maximal inhibition (IC50) in assay [5] and in assay [6] was over 100 µM throughout. Besides, the “IC50 reduced by complexation with HP-β-CD, SW1116” value in assay [2] (complex vs pristine compound) was found to be 45%. The “IC50 reduced by complexation with HP-β-CD, SMMC-7721” value in [3] (complex vs pristine compound) turned out to be 58%.

On to `O=C1C=CC[C@H]([C@H](O)[C@H](O)c2ccccc2)O1` [Goniodiol, (R)-6-((1R,2R)-1,2-dihydroxy-2-phenylethyl)-5,6-dihydro-2H-pyran-2-one], for which the concentration for half-maximal inhibition (IC50) in [2] (setting [8]) is 80 ± 4.16 µM; in assay [3] (setting [9]), over 100 µM; in assay [4] (setting [10]), over 100 µM; in assay [5], over 100 µM; in assay [6], over 100 µM.

As for `O=C1C=CC[C@H]([C@@H](O)[C@H](Oc2cc(O)c3c(c2)O[C@H](c2ccccc2)CC3=O)c2ccccc2)O1` [Leiocarpin B, (S)-5-hydroxy-7-((1R,2R)-2-hydroxy-2-((R)-6-oxo-3,6-dihydro-2H-pyran-2-yl)-1-phenylethoxy)-2-phenylchroman-4-one], in [2] (24 h), the “cell viability of SW1116 cells compared with normal group (0 μM)” value was “significantly less”. Besides, the half-maximal inhibitory concentration (IC50) in [2] (setting [8]) is 17.5 ± 0.69 µM; in [3] (setting [9]), 15.5 ± 1.11 µM; in assay [4] (setting [10]), over 100 µM; in assay [5], 19.3 ± 1.42 µM; in assay [6], 18.2 ± 0.88 µM.

Regarding `O=C1C=CC[C@H]([C@@H](O)[C@H]2O[C@H]([C@H]3CC=CC(=O)O3)[C@@H](c3ccccc3)c3ccccc32)O1` [Leiocarpin E, (R)-6-((R)-hydroxy((1S,3S,4S)-3-((R)-6-oxo-3,6-dihydro-2H-pyran-2-yl)-4-phenylisochroman-1-yl)methyl)-5,6-dihydro-2H-pyran-2-one], the “cell viability of SW1116 cells compared with normal group (0 μM)” value in assay [2] (24 h) is “significantly less”. For the same compound, the IC50 is 15.1 ± 1.87 µM in assay [2] (setting [8]); over 100 µM in assay [3] (setting [9]); over 100 µM in [4] (setting [10]); over 100 µM in [5]; over 100 µM in [6].

Turning to `CC(=O)OC(C1CC=CC(=O)O1)C1OC(C2CC=CC(=O)O2)C(c2ccccc2)c2ccccc21` (centres unmarked) [Leiocarpin E-7′-monoacetate, leiocarpin E-7′-monoacetate], the “cell viability of SW1116 cells compared with normal group (0 μM)” value in [2] (24 h) was “significantly less”. In addition, the half-maximal inhibitory concentration (IC50) in assay [2] (setting [8]) is 6.73 ± 0.89 µM; in assay [3] (setting [9]) it was 61.7 ± 10.1 µM; in [4] (setting [10]), over 100 µM; in assay [5], 50.1 ± 3.25 µM; in assay [6], 45 ± 4.27 µM. Further, the “early apoptosis rate (Q4)” value in the assay with SW1116 cells (SW1116, 3 μM) was determined as 2.6%; in the assay on SW1116 cells (SW1116, 10 μM) it was 21.8%; in the assay with SW1116 cells (SW1116, 30 μM) it was 55.2%. Moreover, the “ratio of ODsample to ODnegative (caspase activity)” value is given as at most 1 in assay [7] (SW1116, 3 μM); “greater than 1” in [7] (SW1116, 10 μM); “greater than 1” in assay [7] (SW1116, 30 μM).

In the case of `COc1cc([C@@H]2c3cc4c(cc3[C@@H](O[C@@H]3O[C@@H]5CO[C@@H](C)O[C@H]5[C@H](O)[C@H]3O)[C@H]3COC(=O)[C@H]23)OCO4)cc(OC)c1O` [VP-16, Etoposide, reference compound], the concentration for half-maximal inhibition (IC50) is 41.9 ± 0.98 µM in [2] (setting [8]); over 100 µM in assay [3] (setting [9]); over 100 µM in assay [4] (setting [10]); over 100 µM in [5]; over 100 µM in [6].

As for hydroxypropyl-β-cyclodextrin [HP-β-CD], in assay [2] (MTT, 24 h, 25.0-200.0 μM), the “inhibition of growth, SW1116” value is “did not show any inhibition; also recorded: no inhibitory effect”. For the same compound, the “inhibition of growth, SMMC-7721” value in assay [3] (MTT, 24 h, 25.0-200.0 μM) is “did not show any inhibition; also recorded: no inhibitory effect”. Further, the “inhibitory activity against HEK293T” value in assay [4] (25.0-200.0 μM) is reported as “did not show any inhibitory activity”.
